The values that follow come from paper PMC6478719 (Communications Biology, 2019).

Like-named read-outs stand apart in the source and are kept apart here.

For the test, the target named is T1, Olfr73 (Mus musculus, UniProt Q920P2).
T1 construct: expressed in transfected cells; host or cells: Hana3A cells (HEK293T-derived), co-transfected with pRTP1S and pCRE-SEAP
T1 sequence (Q920P2 1-313): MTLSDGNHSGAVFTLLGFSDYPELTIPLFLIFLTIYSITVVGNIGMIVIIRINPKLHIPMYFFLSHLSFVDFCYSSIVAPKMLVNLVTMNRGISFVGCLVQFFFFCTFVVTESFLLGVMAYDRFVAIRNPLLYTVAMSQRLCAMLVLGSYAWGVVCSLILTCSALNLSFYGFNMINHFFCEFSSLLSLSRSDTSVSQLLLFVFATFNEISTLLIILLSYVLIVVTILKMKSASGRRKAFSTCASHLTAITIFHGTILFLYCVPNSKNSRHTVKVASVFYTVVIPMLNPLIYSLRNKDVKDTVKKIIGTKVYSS
The test is described as follows: SEAP reporter assay (cAMP signalling) of Olfr73 activation in Hana3A cells. In kind it is cell-based. The protocol: As described in detail elsewhere[16],[45],[47] HEK293T-derived Hana3A cells (provided by Prof. Matsunami, Duke University, USA) were grown in DMEM/F12 medium (Invitrogen, Netherlands) supplemented with 10% fetal calf serum (FCS) (Invitrogen, Netherlands), maintained under selective conditions with 1 μg/ml of puromycin (Sigma, Switzerland) and kept in the incubator at 37 °C and 5% CO2. Cells were transfected with plasmid DNA using Lipofectamine 2000 (Invitrogen, Netherlands).
The assays were performed as described in detail elsewhere[16],[45],[47] twenty hours before transfection Hana3A cells were seeded into 96 wells (Greiner, Germany) at a concentration of 3.5 × 10^6 cells per ml of medium. 75 ng of pRTP1S, 150 ng of the cAMP response element fused to the secreted alkaline phosphatase (pCRE-SEAP)[89] and either 75 ng of pOlfr73[47] or 75 ng of calf thymus DNA, used as a control, were co-transfected. Compounds to be tested (Sigma, Switzerland) were diluted in DMEM/F12 without FCS and added to the cells 7 h after transfection. Cells were incubated for 16 h at 37 °C in the incubator. For the SEAP reporter assay, the culture medium was mixed with an equal volume of 1 M diethanolamine-bicarbonate, pH 9.8, containing 20 mM para-nitrophenyl-phosphate (pNPP) (Sigma, Switzerland) and 1 mM MgCl2 (Sigma, Switzerland). Absorbance was measured at 410 nm using a multiwell absorbance plate reader (Molecular Devices, USA) at 1- to 4-min intervals for a period of 5 min to determine SEAP expression dependent pNPP hydrolysis rates (A410 /min). EC50 values were determined from dose-response curves fitting experimental data with the Hill equation using IGOR Pro software (WaveMetrics):
fx=f(max)/1+EC50/x^n f(x) is the background-corrected response signal at concentration x of the investigated ligand, f(max) the maximal, background-corrected amplitude of the response signal, EC50 the half maximal effective ligand concentration, and n the Hill coefficient. Experiments were performed in triplicate.

Setting [1] is: Supplementary Table 2, cellular assays, triplicate, n.a. = no active response, read-out: EC50.
Setting [2] is: EC50 (in brackets, Fig. 4), Fig. 4, newly found agonists A1-A17.
Where [3] appears, read: EC50 (μM), Supplementary Table 2, cellular assays, triplicate, n.a. = no active response.
The mark [4] stands for this setting: Fig. 4, newly found agonists A1-A17, read-out: EC50 (in brackets, Fig. 4).

With `CC(=O)c1cc(C)c(O)c(C)c1` [A13, 4-hydroxy-3,5-dimethylacetophenone], the EC50 under setting [1] stood at 250 ± 3 µM. For `Oc1ccc(C2CCCCC2)cc1` [A3, 4-cydohexyl-phenol], the EC50 under setting [2] worked out at 51 µM and the EC50 under setting [3] was 50.8 ± 0.5 µM. On the same counts, the results for `C=CCc1cc(C(C)=O)ccc1O` [A9, 1-(3-allyl-4-hydroxyphenyl)-ethanone] are 97 µM and 96.9 ± 1.7 µM. `COc1cc2ccccc2cc1OC` [A10, 2,3-dimethoxynaphthalene]: under setting [1], the EC50 worked out at 120 ± 1 µM. For the compound `CCOC(=O)c1ccc(O)c(OC)c1` [A16, ethylvanillate], the EC50 under setting [3] was 505 ± 109 µM.

Consider `CCC(=O)c1ccc(O)cc1` [A15, 4-hydroxypropiophenone], for which, under setting [1], the half-maximal effective concentration (EC50) came out at 502 ± 315 µM.

Consider `COc1cc(C(C)(C)C)ccc1O` [A4, 4-tert-butyl-2-methoxyphenol], for which the EC50 runs as follows: under setting [4], 56 µM; under setting [1], 55.6 ± 0.7 µM. As to `CCCCCC1CCC(=O)CC1` [A6, 4-pentylcyclohexanone], the EC50 reads like this: under setting [4], 63 µM; under setting [1], 63.1 ± 1.5 µM. On the same counts, the results for `COc1cc2c(cc1OC)CCCC2` [A7, 6,7-dimethoxy-1,2,3,4-tetrahydronaphthalene] are 88 µM and 88.4 ± 1.3 µM. In the case of `CCCc1ccc(O)c(OC)c1` [A5, dihydroeugenol], under setting [3], the EC50 was 61 ± 6.9 µM. For the compound `CC(C)=C[C@H]1C[C@H](C)CCO1` [A17, (2R,4R)-4-methyl-2-(2-methylprop-1-en-1-yl)-tetrahydro-2H-pyran], under setting [1], the EC50 turned out to be 627 ± 62 µM.

On to `CC(C)Cc1ccc(O)cc1` [A1, p-isobutylphenol], for which the EC50 under setting [4] amounted to 13 µM and the EC50 under setting [1] is 12.9 ± 0.9 µM. The “agonist activity at Olfr73 (SEAP signal)” value (Hana3A cells, compounds predicted from virtual screening) is reported as “most potent ligand”. With `C/C=C/c1ccc(OCC)c(OC)c1` [A11, isoeugenylethylether], under setting [1], the EC50 was found to be 193 ± 3 µM. Consider `CC(=O)c1cc(C)c(O)cc1C` [A2, 2’,5’-dimethyl -4’hydroxyacetophenone], for which, under setting [1], the EC50 was determined as 16 ± 1.5 µM. Turning to `CC/C=C/c1ccc(OC)c(OC)c1` [A8, (E)-4-(but-1-en-1-yl)-1,2-dimethoxybenzene], the EC50 by setting is: under setting [2], 93 µM; under setting [3], 92.5 ± 0.9 µM.

In general, EC50 refers to the concentration at which the effect is half-maximal.
